Reference: patent publication US9586968B2, “Bicycloamine-substituted-N-benzenesulfonamide compounds with selective activity in voltage-gated sodium channels” (Merck Sharp & Dohme Corp., priority 2013, dated 2017)

Assays:
human Nav1.5 = molecular target: T1, human Nav1.5 (Homo sapiens, UniProt Q14524); experiment: PatchXpress automated patch-clamp, inactivated state block of Nav1.5 (selectivity); assay type: cell-based; details: determined by PatchXpress measurement, HEK 293 cells
T1 construct: expressed in transfected cells
Procedure: (§1) Compounds were tested on human Nav1.7 and Nav1.5 channels stably expressed in HEK 293 cells. Activity toward Nav 1.7 and Nav 1.5 channels was assessed using the following assay methodology.
(§2) Sodium Current Measurements on the PatchXpress 7000®:
(§3) To measure inactivated state block of sodium channels, test compounds were characterized in an automated PatchXpress® assay (Molecular Devices) using a double-pulse protocol on human Nav1.7 and Nav1.5 channels stably expressed in HEK 293 cells. Cells were held at a potential 20 mV negative to V0.5 inact. An 8000 ms pre-pulse 7 mV positive to V0.5 inact was given followed by a hyperpolarizing 2 ms pulse to −120 mV and a 20 ms test pulse to −20 mV. Protocol was applied to cells in the absence, presence of compound and after washout. The temperature of PatchXpress instruments was maintained at 22° C. The following recording solutions were used. Internal solution (mM): 30 CsCl, 5 HEPES, 10 EGTA, 120 CsF, 5 NaF, 2 MgCl2. External solution (mM): 120 NMDG, 40 NaCl, 1 KCl, 0.5 MgCl2, 5 HEPES, 2.7 CaCl2.
(§4) For all electrophysiology experiments, offline analysis was used to correct for current rundown and to determine percent inhibition as a function of drug concentration. IC50 values were determined by fitting to the Hill equation.

human Nav1.7 = molecular target: T2, human Nav1.7 (Homo sapiens, UniProt Q15858); experiment: PatchXpress automated patch-clamp, inactivated state block of Nav1.7; assay type: cell-based; details: channels stably expressed in HEK 293 cells, 22° C., read-out: potency for the Nav 1.7 sodium ion channel (as measured by PatchXpress)
T2 construct: expressed in transfected cells
Procedure: as §1, §2, §3, §4

T2 sequence (Q15858 whole entry): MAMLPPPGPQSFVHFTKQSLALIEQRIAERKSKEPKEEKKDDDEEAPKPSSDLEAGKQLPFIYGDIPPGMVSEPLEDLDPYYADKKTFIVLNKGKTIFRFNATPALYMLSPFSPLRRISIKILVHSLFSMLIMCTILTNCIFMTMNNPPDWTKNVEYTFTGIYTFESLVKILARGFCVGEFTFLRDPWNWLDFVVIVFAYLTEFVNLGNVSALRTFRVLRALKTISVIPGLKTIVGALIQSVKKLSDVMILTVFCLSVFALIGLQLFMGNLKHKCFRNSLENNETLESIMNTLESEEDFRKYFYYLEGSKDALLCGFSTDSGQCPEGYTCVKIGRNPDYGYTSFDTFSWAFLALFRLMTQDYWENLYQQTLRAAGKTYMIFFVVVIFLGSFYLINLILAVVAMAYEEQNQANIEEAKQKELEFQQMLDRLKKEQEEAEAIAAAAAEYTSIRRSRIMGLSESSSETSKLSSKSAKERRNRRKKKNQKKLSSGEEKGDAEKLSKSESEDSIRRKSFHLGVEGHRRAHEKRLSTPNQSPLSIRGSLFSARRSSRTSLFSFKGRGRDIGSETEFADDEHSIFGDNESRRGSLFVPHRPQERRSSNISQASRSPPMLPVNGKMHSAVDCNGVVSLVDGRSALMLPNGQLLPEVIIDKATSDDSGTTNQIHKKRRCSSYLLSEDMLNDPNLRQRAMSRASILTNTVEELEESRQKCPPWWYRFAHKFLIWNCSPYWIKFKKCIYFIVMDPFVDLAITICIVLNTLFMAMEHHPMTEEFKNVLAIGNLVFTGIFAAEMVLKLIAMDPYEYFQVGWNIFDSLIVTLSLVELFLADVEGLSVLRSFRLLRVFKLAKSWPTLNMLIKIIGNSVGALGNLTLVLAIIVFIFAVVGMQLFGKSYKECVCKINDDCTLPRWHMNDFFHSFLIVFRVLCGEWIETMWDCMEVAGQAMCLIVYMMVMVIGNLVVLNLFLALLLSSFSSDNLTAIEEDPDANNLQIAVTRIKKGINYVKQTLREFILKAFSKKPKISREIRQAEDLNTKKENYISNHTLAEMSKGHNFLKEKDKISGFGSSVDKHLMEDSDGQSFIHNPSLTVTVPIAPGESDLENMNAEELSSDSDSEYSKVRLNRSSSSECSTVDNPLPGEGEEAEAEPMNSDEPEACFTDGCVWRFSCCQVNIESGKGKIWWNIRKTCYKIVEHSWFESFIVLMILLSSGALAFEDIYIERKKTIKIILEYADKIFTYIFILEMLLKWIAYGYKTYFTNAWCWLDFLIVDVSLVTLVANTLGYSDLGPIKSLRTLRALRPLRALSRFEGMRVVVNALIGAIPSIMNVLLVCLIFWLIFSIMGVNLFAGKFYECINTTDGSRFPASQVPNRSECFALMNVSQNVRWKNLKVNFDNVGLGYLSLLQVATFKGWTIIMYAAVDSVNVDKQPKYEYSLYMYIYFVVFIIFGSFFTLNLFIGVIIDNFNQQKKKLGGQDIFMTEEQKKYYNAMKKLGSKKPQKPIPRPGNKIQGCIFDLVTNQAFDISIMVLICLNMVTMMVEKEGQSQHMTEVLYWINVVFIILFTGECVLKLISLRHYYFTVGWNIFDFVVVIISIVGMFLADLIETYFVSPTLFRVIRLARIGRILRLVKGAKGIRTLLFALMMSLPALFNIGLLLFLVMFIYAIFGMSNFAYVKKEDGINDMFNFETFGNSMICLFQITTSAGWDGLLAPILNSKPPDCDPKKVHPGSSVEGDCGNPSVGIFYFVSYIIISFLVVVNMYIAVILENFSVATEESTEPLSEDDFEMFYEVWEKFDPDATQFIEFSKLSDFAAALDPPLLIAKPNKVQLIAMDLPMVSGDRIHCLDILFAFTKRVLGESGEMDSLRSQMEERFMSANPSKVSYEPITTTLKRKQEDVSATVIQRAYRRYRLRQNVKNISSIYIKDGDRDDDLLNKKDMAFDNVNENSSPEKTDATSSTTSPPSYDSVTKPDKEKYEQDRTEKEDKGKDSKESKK
T1 sequence (Q14524 whole entry): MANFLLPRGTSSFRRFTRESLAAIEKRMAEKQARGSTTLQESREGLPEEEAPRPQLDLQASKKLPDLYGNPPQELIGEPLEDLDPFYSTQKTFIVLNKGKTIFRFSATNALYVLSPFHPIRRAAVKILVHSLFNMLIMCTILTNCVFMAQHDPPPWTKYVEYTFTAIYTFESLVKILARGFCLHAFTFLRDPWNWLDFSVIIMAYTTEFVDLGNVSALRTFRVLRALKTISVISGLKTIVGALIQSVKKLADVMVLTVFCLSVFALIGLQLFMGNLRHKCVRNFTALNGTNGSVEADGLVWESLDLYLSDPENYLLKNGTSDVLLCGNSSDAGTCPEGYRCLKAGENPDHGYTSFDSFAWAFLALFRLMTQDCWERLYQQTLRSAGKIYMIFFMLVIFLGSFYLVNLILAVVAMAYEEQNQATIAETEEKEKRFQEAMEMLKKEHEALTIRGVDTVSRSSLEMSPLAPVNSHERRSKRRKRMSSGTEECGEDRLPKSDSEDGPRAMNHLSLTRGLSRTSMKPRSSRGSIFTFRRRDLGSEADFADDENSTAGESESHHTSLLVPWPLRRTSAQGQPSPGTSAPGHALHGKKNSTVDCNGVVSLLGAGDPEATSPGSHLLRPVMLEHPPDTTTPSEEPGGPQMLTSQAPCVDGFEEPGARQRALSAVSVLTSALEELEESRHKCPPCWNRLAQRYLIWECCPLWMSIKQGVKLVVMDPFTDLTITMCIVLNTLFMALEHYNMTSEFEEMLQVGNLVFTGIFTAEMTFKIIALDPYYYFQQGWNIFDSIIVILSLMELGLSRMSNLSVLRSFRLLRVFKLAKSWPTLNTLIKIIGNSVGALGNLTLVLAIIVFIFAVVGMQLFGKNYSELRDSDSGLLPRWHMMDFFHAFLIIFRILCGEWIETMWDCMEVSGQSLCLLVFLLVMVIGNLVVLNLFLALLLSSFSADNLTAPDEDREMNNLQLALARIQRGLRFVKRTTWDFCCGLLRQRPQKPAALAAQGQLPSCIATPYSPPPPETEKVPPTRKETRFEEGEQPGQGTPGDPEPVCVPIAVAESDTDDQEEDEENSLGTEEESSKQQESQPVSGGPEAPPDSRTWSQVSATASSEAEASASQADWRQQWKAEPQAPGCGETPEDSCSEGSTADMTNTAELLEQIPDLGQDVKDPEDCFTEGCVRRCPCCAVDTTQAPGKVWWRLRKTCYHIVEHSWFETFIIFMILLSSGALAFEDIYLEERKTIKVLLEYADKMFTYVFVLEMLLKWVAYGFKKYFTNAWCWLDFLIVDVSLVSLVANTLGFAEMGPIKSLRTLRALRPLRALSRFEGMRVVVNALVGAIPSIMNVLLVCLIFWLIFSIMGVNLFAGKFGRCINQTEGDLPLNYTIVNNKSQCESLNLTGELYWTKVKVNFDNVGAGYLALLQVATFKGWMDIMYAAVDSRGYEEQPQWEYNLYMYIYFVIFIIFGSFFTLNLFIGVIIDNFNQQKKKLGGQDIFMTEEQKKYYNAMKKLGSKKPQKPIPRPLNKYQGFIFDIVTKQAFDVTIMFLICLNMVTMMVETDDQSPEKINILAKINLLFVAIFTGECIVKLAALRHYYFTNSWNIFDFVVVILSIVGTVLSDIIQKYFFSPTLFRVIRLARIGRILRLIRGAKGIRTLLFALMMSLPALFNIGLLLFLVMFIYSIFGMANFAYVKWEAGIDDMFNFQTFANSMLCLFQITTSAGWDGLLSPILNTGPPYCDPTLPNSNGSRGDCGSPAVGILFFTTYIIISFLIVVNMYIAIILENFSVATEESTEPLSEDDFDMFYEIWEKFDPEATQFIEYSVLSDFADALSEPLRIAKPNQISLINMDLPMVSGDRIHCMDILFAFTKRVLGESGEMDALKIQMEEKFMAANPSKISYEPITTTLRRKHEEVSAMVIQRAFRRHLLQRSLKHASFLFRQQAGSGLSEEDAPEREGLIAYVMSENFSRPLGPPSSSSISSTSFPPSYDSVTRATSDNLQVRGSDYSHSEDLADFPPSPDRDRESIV

Compound | IC50 (human Nav1.7) | ratio of Nav1.7 potency:Nav 1.5 potency (human Nav1.5)
CC1CN2CCCC2(CNc2ccc(S(=O)(=O)Nc3nccs3)cc2C#N)C1 (racemic) [Ex4-8, 3-cyano-4-{[((2S,7aR and 2R,7aS)-2-methyltetrahydro-1H-pyrrolizin-7a(5H)-yl)methyl]amino}-N-(1,3-thiazol-2-yl)benzenesulfonamide] | 27 nM | 1109
N#Cc1cc(S(=O)(=O)Nc2nccs2)ccc1NCC12CCCN1CC(F)(F)C2 (racemic) [Ex6-6, (R and S)-3-cyano-4-{[(2,2-difluorotetrahydro-1H-pyrrolizin-7a(5H)-yl)methyl]amino}-N-(1,3-thiazol-2-yl)benzenesulfonamide] | 472 nM | 64
O=S(=O)(Nc1nccs1)c1cc(Cl)c(NCC23CCCN2C(CF)CC3)cc1F (racemic) [Ex14-10, 5-chloro-2-fluoro-4-((((3S,7aS and 3R,7aR)-3-(fluoromethyl)hexahydro-1H-pyrrolizin-7a-yl)methyl)amino)-N-(thiazol-2-yl)benzenesulfonamide] | 59 nM | 509
CC(Nc1cc(F)c(S(=O)(=O)Nc2nccs2)cc1Cl)C12CCCN1CCC2 (single isomer, unassigned) [Ex5-8, 5-chloro-2-fluoro-4-{[(R or S)1-(tetrahydro-1H-pyrrolizin-7a(5H)-yl)ethyl]amino}-N-(1,3-thiazol-2-yl)benzenesulfonamide] | 52 nM | 407
CC(Nc1cc(F)c(S(=O)(=O)Nc2nccs2)cc1Cl)C12CCCN1CCC2 (single isomer, unassigned) [Ex5-9, 5-chloro-2-fluoro-4-{[(1S or R)-1-(tetrahydro-1H-pyrrolizin-7a(5H)-yl)ethyl]amino}-N-(1,3-thiazol-2-yl)benzenesulfonamide] | 1090 nM | 26

Further lines, with some results ahead:

IC50 (human Nav1.7) | Compound | ratio of Nav1.7 potency:Nav 1.5 potency (human Nav1.5)
1300 nM | O=S(=O)(Nc1ncc(Cl)s1)c1cc(Cl)c(NCC23CCCN2CC(F)(F)C3)cc1F (racemic) [Ex6-8, (R and S)-5-chloro-N-(5-chloro-1,3-thiazol-2-yl)-4-{[(2,2-difluorotetrahydro-1H-pyrrolizin-7a(5H)-yl)methyl]amino}-2-fluorobenzenesulfonamide] | 19
32 nM | Cc1csc(NS(=O)(=O)c2cc(Cl)c(NCC34CCCN3CC(C)(C)C4)cc2F)n1 (racemic) [Ex8-25, (R and S)-5-chloro-4-(((2,2-dimethylhexahydro-1H-pyrrolizin-7a-yl)methyl)amino)-2-fluoro-N-(4-methylthiazol-2-yl)benzenesulfonamide] | 947
14 nM | CC1(C)CN2CCCC2(CNc2cc(F)c(S(=O)(=O)Nc3ncc(Cl)s3)cc2Cl)C1 (single isomer, unassigned) [Ex8-19-A, (R or S) 5-chloro-N-(5-chlorothiazol-2-yl)-4-(((2,2-dimethylhexahydro-1H-pyrrolizin-7a-yl)methyl)amino)-2-fluorobenzenesulfonamide] | 812
135 nM | CC1(C)CN2CCCC2(CNc2cc(F)c(S(=O)(=O)Nc3ncc(Cl)s3)cc2Cl)C1 (single isomer, unassigned) [Ex8-19-B, (S or R) 5-chloro-N-(5-chlorothiazol-2-yl)-4-(((2,2-dimethylhexahydro-1H-pyrrolizin-7a-yl)methyl)amino)-2-fluorobenzenesulfonamide] | 265
9 nM | CC1CN2CCCC2(CNc2cc(F)c(S(=O)(=O)Nc3nccs3)cc2Cl)C1 [Ex4-9, 5-chloro-2-fluoro-4-{[((2S,7aR and 2R,7aS)-2-methyl-tetrahydro-1H-pyrrolizin-7a(5H)-yl)methyl]amino}-N-(1,3-thiazol-2-yl)-benzenesulfonamide] | 
